According to publication PMC8366683 (Future oncology (London, England), 2013):
Like-named read-outs stand apart in the source and are kept apart here.

Experiments:
[1] = tested on: KB-C2; assay: cells; conditions: Homo sapiens, KB-C2, 72 h, read-out: IC50 ± SD^†; nM (resistance fold) / KB-C2
[2] = tested on: KB-3-1; assay: cells; conditions: Homo sapiens, KB 3-1, 72 h, read-out: IC50 ± SD^†; nM (resistance fold) / KB-3-1
[3] = target: ABCB1 (P-glycoprotein) (Homo sapiens, UniProt P08183); assay: competition of […]-IAAP photoaffinity labeling; type: binding
[4] = tested on: HEK293/pcDNA3.1; assay: cells; conditions: Homo sapiens, HEK293, 72 h, read-out: IC50 ± SD^†; nM (resistance fold) / HEK293/pcDNA3.1
[5] = tested on: ABCG2-482-R2; assay: cells; conditions: 72 h, read-out: IC50 ± SD^†; nM (resistance fold) / ABCG2-482-R2
[6] = tested on: ABCG2-482-G2; assay: cells; conditions: 72 h, read-out: IC50 ± SD^†; nM (resistance fold) / ABCG2-482-G2
[7] = tested on: ABCG2-482-T7; assay: cells; conditions: 72 h, read-out: IC50 ± SD^†; nM (resistance fold) / ABCG2-482-T7
[8] = tested on: HEK/ABCB1; assay: cells; conditions: 72 h, read-out: IC50 ± SD^†; nM (resistance fold) / HEK/ABCB1
[9] = tested on: HEK293/pcDNA3.1; assay: cells; conditions: Homo sapiens, HEK293, 72 h, read-out: IC50 ± SD^†; nM (resistance fold) / HEK293/pcDNA3.1; remark: listed apart in the source

Chain of ABCB1 (P-glycoprotein) (P08183 whole entry): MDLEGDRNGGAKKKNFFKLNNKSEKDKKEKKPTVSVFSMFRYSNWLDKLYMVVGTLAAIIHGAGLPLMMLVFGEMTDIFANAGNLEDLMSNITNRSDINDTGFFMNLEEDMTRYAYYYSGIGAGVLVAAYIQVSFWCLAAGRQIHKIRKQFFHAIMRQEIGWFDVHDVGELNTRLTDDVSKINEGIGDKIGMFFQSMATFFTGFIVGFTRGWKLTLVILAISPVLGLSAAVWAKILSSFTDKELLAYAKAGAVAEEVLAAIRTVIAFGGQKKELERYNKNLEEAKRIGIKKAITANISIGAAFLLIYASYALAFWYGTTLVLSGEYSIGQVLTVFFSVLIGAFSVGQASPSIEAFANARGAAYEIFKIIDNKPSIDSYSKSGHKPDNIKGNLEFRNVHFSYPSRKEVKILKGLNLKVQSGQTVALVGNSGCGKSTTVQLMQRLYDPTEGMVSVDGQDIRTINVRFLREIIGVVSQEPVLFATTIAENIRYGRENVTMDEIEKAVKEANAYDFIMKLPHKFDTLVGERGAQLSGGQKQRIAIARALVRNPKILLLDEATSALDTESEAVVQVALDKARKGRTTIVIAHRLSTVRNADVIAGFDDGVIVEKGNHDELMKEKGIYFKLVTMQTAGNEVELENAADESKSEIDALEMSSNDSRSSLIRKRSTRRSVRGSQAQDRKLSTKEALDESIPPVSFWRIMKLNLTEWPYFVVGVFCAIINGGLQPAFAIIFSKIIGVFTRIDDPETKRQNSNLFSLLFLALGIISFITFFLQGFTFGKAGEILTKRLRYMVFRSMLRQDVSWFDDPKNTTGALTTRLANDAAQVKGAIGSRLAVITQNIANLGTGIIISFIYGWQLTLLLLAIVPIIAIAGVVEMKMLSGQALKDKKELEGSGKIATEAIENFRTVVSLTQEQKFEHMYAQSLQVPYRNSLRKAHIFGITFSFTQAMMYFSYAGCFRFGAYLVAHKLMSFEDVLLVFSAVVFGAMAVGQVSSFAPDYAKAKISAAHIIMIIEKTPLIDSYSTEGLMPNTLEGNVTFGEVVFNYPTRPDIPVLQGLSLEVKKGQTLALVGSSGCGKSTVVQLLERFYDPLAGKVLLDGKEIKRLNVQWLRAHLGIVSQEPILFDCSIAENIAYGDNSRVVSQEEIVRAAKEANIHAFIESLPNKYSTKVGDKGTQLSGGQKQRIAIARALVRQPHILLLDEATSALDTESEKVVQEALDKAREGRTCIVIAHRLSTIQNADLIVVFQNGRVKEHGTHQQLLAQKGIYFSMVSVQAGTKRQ

Row | IC50 [5] [nM] | IC50 [6] [nM] | IC50 [7] [nM] | SMILES | IC50 [4] [nM] | other results
1 | 71.6 | 152 | 162 | CCc1c2c(nc3ccc(O)cc13)-c1cc3c(c(=O)n1C2)COC(=O)[C@]3(O)CC [SN-38] | 2.1 | –
2 | 62.1 | 168 | 133 | COc1cccc2c1C(=O)c1c(O)c3c(c(O)c1C2=O)C[C@@](O)(C(=O)CO)C[C@@H]3O[C@H]1C[C@H](N)[C@H](O)[C@H](C)O1 [Doxorubicin] | 16.6 | –

The remaining lines, values behind:

Row | SMILES | IC50 [5] [nM] | IC50 [6] [nM] | IC50 [7] [nM] | IC50 [4] [nM] | other results
3 | CC[C@]1(O)C[C@@H]2CN(CCc3c([nH]c4ccccc34)[C@@](C(=O)OC)(c3cc4c(cc3OC)N(C)[C@H]3[C@@](O)(C(=O)OC)[C@H](OC(C)=O)[C@]5(CC)C=CCN6CC[C@]43[C@@H]65)C2)C1 [Vinblastine] | – | – | – | – | IC50 [1]: 34.4 nM; IC50 [2]: 0.2 nM
4 | COc1cc2nccc(Oc3ccc(NC(=O)Nc4cc(C)on4)c(Cl)c3)c2cc1OC [tivozanib] | – | – | – | – | IC50 [3]: 2900 nM
5 | O=C1c2c(O)ccc(O)c2C(=O)c2c(NCCNCCO)ccc(NCCNCCO)c21 [mitoxantrone] | 167 | 179 | 190 | 35.7 | –
6 | CC[C@]1(O)C[C@H]2CN(CCc3c([nH]c4ccccc34)[C@@](C(=O)OC)(c3cc4c(cc3OC)N(C=O)[C@H]3[C@@](O)(C(=O)OC)[C@H](OC(C)=O)[C@]5(CC)C=CCN6CC[C@]43[C@@H]65)C2)C1 [Vincristine] | – | – | – | – | IC50 [8]: 1410 nM; IC50 [9]: 4.1 nM
7 | CC(=O)O[C@H]1C(=O)[C@@]2(C)[C@H]([C@H](OC(=O)c3ccccc3)[C@]3(O)C[C@H](OC(=O)[C@H](O)[C@@H](NC(=O)c4ccccc4)c4ccccc4)C(C)=C1C3(C)C)[C@]1(OC(C)=O)CO[C@@H]1C[C@@H]2O [paclitaxel] | – | – | – | – | IC50 [8]: 8480 nM; IC50 [9]: 28.3 nM; IC50 [1]: 4930 nM; IC50 [2]: 6.5 nM
